Test results as given in patent US11116819B2, “Methods and compositions for mobilizing stem cells” (President and Fellows of Harvard College, priority 2013, dated 2021).
“Also recorded” adds a separate entry of the source.

Tests used:
[1] = system: long term reconstituting cells (HSPC); assay: Competitive transplantation of mobilized peripheral blood into lethally irradiated congenic recipients (incl. serial transplant); assay type: in vivo, mice; conditions: for potency of mobilization with AMD3100 compared with AMD3100 alone: AMD3100 5 mg/kg plus heparin 100 U/mouse or protamine sulfate 40 mg/kg, relative frequency of engrafted donor cells, AMD3100 alone = 1; for stem cell mobilization by the agent alone: Example 3, data not shown; for mobilization of long term reconstituting cells (PB competitive transplantation, primary recipients): wild type mice, single dose heparin 100 U/mouse added to G-CSF regimen
Method: Blood from animals treated with single dose AMD3100 alone (5 mg/kg) or AMD3100 plus heparin (100 U/mouse) or protamine sulfate (40 mg/kg) was used in transplantation of lethally irradiated congenic hosts and the relative frequency of engrafted donor cells is indicated. Line at 1=AMD3100 alone. Results are from 6-10 animals/group.
Hypothesizing that endogenous HSPG could be competed with by known pharmacologic HSPG, we examined whether heparin sulfate could mimic the EXT1 deletion effect on stem cell localization. Initially, this was done using a single dose of heparin sulfate (100 U/mouse) after a standard G-CSF mobilization regimen, harvesting the peripheral blood and using it to reconstitute lethally irradiated congenic recipients (FIG. 3). The primary recipients were then harvested after 4 months and used to transplant secondary lethally irradiated recipients.
For non-competitive BM transplantation, to create the chimeras described in FIG. 1a, one million whole BM cells from B6.SJL (CD45.1) mice were transplanted into lethally irradiated (9.5 Gy from a Cesium source 4-24 hours before transplantation) Ext1-loxP/loxP-Mx1cre (CD45.2) recipients six-to-eight weeks before pIpC administration. Neutrophil and platelet recovery assay was performed as previously described (Hoggatt et al., 2013). Briefly, 3 million mobilized PB mononuclear cells (MNC) from C57BL/6J (CD45.2) mice were transplanted into lethally irradiated B6.SJL (CD45.1) mice and followed up for at least 36 days. For transplantation without cytotoxic conditioning, 1, 4 or 8 million whole BM cells from B6.SJL mice were transplanted into Ext1-loxP/loxP-Mx1cre recipients three weeks after pIpC administration. For competitive transplantation of mobilized peripheral blood (PB), 150 ul of PB (CD45.2) was mixed with 2×10^5 congenic BM support cells and injected into lethally irradiated CD45.1 recipients. Cells were infused via lateral tail vein injection. Engraftment was monitored at 4-week intervals by FACS analysis.
(§1) Recombinant human G-CSF (Neupogen, Filgrastrim) was administered at 125 ug/kg of TBW every 12 hours for eight consecutive injections. Heparin Sodium (APP Pharmaceuticals) was injected i.p. at a single dose of 100 U. Hirudin was used at 40 mg/kg of TBW in a single dose. Vcam1 neutralizing antibody and the corresponding isotype control (Rat IgG2a, k) were injected intravenously at 2 mg/kg of TBW every day for three doses and PB samples were obtained through retro-orbital bleeding the day following the last injection. AMD3100 was administered subcutaneously at a single dose of 5 mg/kg TBW. PB samples were obtained through retro-orbital bleeding 3 hours after the last injection of G-CSF and 1 hour after Heparin, AMD3100, or Hirudin injection.

[2] = system: CD34+ cells; conditions: cited from earlier work
[3] = system: HSPC; assay: HSPC mobilization in mice (background statements, GRO-β and heparin); assay type: in vivo; conditions: unlike G-CSF; data not shown
Method: It does so acutely, mobilizing HSPC maximally by 15 minutes post infusion in mice. […] It is an excellent candidate to serve as a niche-vacating agent. We have also recently identified a novel involvement of heparan sulfate proteoglycans […] in HSC retention in the bone marrow that can be manipulated pharmacologically to induce stem cell mobilization of cells functionally distinctive from those mobilized by G-CSF. This process is one that involves the use of heparin and AMD3100 and achieves robust mobilization using approved agents that can quickly move to clinical trial.

[4] = system: HSPC; conditions: cited from earlier work
[5] = system: circulating hematopoietic stem/progenitor cells (HSPC); assay: Peripheral blood colony forming unit (CFU-C) assay of circulating progenitors after mobilization; assay type: in vivo, mice
Method: as §1
CFU assays were performed as previously described (Ferraro et al., 2011). Equal volumes of PB (50 to 200 juL depending upon the experiment) were subjected to red blood cell lysis with ammonium-chloride-potassium buffer, resuspended in 4 ml of methocult M3434 (Stem Cell Technologies), plated in 35 mm culture dishes (1 mL/dish) and cultured at 37° C. for 8 days before scoring for colony formation.

[6] = Peripheral WBC count (complete blood count) after mobilization; assay type: in vivo; conditions: C57BL/6J mice; heparin alone 100 U/mouse one hour before PB harvest, vs vehicle
Method: as §1
Blood counts were performed with the automatic Vetscan HM2 (Abaxis).

[7] = system: Vcam1; assay: Vcam1 protein level in CD45−Ter119−Mx1+ mesenchymal cells (flow cytometry); assay type: in vivo, mice; conditions: heparin one hour before PB harvest vs vehicle
Method: Immunophenotypic characterization of the hematopoietic and mesenchymal compartments was performed as previously described (Gurumurthy et al., 2010). For details see supplementary information. Vcam1 and Cxcl12 protein levels were evaluated with an anti-Vcam1-APC and an anti-Cxcl12-APC antibody respectively and the corresponding isotype controls (R&D Systems). All data collection was performed on an LSRII or FACS Aria II (Beckon Dickinson) and data analysis was performed with FlowJo (Treestar).
as §1

[8] = system: HSPCs; assay: Type I diabetes-induced mobilopathy model, G-CSF mobilization with PB competitive transplantation; assay type: in vivo, mice; conditions: G-CSF alone
Excerpt: Hematopoietic stem cell transplantation remains the gold standard curative therapy for a number of hematological disorders. However, G-CSF mobilization resistance may compromise lifesaving therapy for some individuals. We therefore evaluated whether genetic or pharmacological competitive inhibition of HSPG may facilitate G-CSF-induced HSPC egress from the BM in a murine model of Type I diabetes-induced mobilopathy (Ferraro et al., 2011). […] However, the compromised response to G-CSF was fully corrected in Type I diabetic mice lacking Ext1 expression in Mx1+ mesenchymal cells (FIG. 9K).
For non-competitive BM transplantation, to create the chimeras described in FIG. 1a, one million whole BM cells from B6.SJL (CD45.1) mice were transplanted into lethally irradiated (9.5 Gy from a Cesium source 4-24 hours before transplantation) Ext1-loxP/loxP-Mx1cre (CD45.2) recipients six-to-eight weeks before pIpC administration. Neutrophil and platelet recovery assay was performed as previously described (Hoggatt et al., 2013). Briefly, 3 million mobilized PB mononuclear cells (MNC) from C57BL/6J (CD45.2) mice were transplanted into lethally irradiated B6.SJL (CD45.1) mice and followed up for at least 36 days. […] Engraftment was monitored at 4-week intervals by FACS analysis. […]

## c1cc(CN2CCCNCCNCCCNCC2)ccc1CN1CCCNCCNCCCNCC1 [AMD3100]
[1]; AMD3100 in combination with G-CSF vs G-CSF alone
  G-CSF-induced mobilization in Ext1 deficient mice (relative PB reconstitution): augments G-CSF-induced mobilization
[2]; after Plerixafor administration
  patients reporting diarrhea or injection site reaction: approximately 33%

## GRO-β: CXCR2 agonist chemokine capable of rapidly mobilizing HSPCs
[3]
  changes in marrow morphology by immunohistochemistry: not associated with changes in marrow morphology
[4]; mice
  time of maximal HSPC mobilization post infusion: 15 min
[4]; mouse, in vivo
  engraftment potential of mobilized long term repopulating HSCs compared with G-CSF: superior engraftment potential

## heparin
[5]; C57BL/6J mice, heparin alone 100 U/mouse one hour before PB harvest, vs vehicle (PBS)
  number of circulating HSPCs as measured by CFU assays: modest, yet significant increase; also recorded: enhanced HSPC mobilization compared to vehicle
[5]; heparin plus AMD3100 vs AMD3100 alone
  AMD3100-induced mobilization (CFU) with co-administration of heparin: enhances AMD3100-induced mobilization
[1]
  potency of mobilization with AMD3100 compared with AMD3100 alone: enhance potency of mobilization compared with AMD3100 alone
  stem cell mobilization by the agent alone: Neither were sufficiently effective alone
[1]; heparin 100 U/mouse added to G-CSF regimen, vs G-CSF alone, secondary lethally irradiated recipients
  secondary engraftment / self-renewal of mobilized cells (serial transplantation): distinctly more capable at providing secondary engraftment
[1]; heparin added to G-CSF vs G-CSF alone, Ext1 mutant mice
  HSPC mobilization in Ext1 mutant (EXT1 KO) mice: loss of its effect
[1]; vs G-CSF alone
  mobilization of long term reconstituting cells (PB competitive transplantation, primary recipients): significantly enhances G-CSF induced mobilization
[1]; vs G-CSF alone, listed as heparin sulfate
  mobilization of long term reconstituting cells (PB competitive transplantation, primary recipients): additive mobilization of stem cells
[6]
  WBC counts: without a significant change
[7]
  Vcam1 levels in Mx1+ mesenchymal cells: does not modulate Vcam1 levels
[4]; Frenette and Weiss, 2000
  ability to induce mobilization on its own: lack the ability to induce mobilization on its own

## hirudin
[1]; hirudin 40 mg/kg single dose with G-CSF, C57BL/6J mice
  effect on G-CSF-induced HSPC mobilization (relative PB reconstitution 16 weeks post transplantation): did not impact G-CSF-induced HSPC mobilization

## protamine sulfate
[1]
  potency of mobilization with AMD3100 compared with AMD3100 alone: enhance potency of mobilization compared with AMD3100 alone
  stem cell mobilization by the agent alone: Neither were sufficiently effective alone

B1: G-CSF: Recombinant human G-CSF, hematopoietic growth factor used clinically to mobilize HSC and HPC (protein, UniProt P09919 31-207, looked up)
Granulocyte …: TPLGPASSLPQSFLLKCLEQVRKIQGDGAALQEKLVSECATYKLCHPEELVLLGHSLGIPWAPLSSCPSQALQLAGCLSQLHSGLFLYQGLLQALEGISPELGPTLDTLQLDVADFATTIWQQMEELGMAPALQPTQGAMPAFASAFQRRAGGVLVASHLQSFLEVSYRVLRHLAQP
modifications: filgrastim
notes: Recombinant human G-CSF, hematopoietic growth factor used clinically to mobilize HSC and HPC
[8]
  HSPC mobilization in Type I diabetic mice: failed to efficiently mobilize HSPCs
[2]; normal, healthy donors
  poor mobilization in response to G-CSF, share of normal, healthy donors: 15%
[2]; patients, G-CSF mobilization
  patients failing to mobilize an optimal CD34+ cell number for autologous transplantation: Up to 60%
